# Results reported in ChEMBL document CHEMBL1687693, “Facile synthesis of a fluorescent cyclosporin a analogue to study cyclophilin 40 and cyclophilin 18 ligands” (ACS Med Chem Lett, 2010).
# Key:
# [1] = target: T1, Peptidyl-prolyl cis-trans isomerase D (Homo sapiens, UniProt Q08752); test: Inhibition of Cyclophilin 40 PPIase activity
# [2] = target: T1, Peptidyl-prolyl cis-trans isomerase D; test: Inhibition of cyclosporin binding to Cyp40 by fluorescence polarization competition assay
# [3] = target: T2, Peptidyl-prolyl cis-trans isomerase A (Homo sapiens, UniProt P62937); test: Inhibition of cyclosporin binding to Cyp18 by fluorescence polarization competition assay
# T2 sequence (P62937 whole entry): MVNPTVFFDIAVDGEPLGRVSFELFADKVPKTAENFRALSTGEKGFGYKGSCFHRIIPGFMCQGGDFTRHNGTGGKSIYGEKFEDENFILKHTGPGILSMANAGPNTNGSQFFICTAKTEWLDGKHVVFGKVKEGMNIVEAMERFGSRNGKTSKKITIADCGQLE
# [4] = target: T2, Peptidyl-prolyl cis-trans isomerase A; test: Inhibition of Cyclophilin 18 PPIase activity
# T1 sequence (Q08752 whole entry): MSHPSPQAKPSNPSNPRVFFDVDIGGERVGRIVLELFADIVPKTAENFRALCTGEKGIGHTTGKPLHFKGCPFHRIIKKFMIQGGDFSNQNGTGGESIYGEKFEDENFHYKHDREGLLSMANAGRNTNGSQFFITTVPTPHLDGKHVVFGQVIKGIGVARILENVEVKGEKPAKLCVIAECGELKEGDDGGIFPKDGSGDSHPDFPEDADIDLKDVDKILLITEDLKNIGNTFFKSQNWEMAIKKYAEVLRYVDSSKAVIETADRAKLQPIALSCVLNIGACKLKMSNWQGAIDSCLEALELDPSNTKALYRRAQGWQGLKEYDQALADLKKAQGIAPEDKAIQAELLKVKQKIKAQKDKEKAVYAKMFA
compound,measurement,setting,value
CC[C@@H]1NC(=O)[C@H]([C@H](O)[C@H](C)C/C=C/c2ccc(CNC(=O)c3ccc(-c4c5ccc(=O)cc-5oc5cc(O)ccc45)c(C(=O)O)c3)cc2)N(C)C(=O)[C@H](C(C)C)N(C)C(=O)[C@H](CC(C)C)N(C)C(=O)[C@H](CC(C)C)N(C)C(=O)[C@@H](C)NC(=O)[C@H](C)NC(=O)[C@H](CC(C)C)N(C)C(=O)[C@H](C(C)C)NC(=O)[C@H](CC(C)C)N(C)C(=O)CN(C)C1=O,Ki,[1],12 nM
same,Kd,[2],101 nM
same,Kd,[3],12 nM
same,Ki,[4],106 nM
